Active and inactive are the calls of the source. The rule behind the calls is not given here.
What was measured:
MDA-MB-231 [1] = assay: Inhibition of DNMT in human MDA-MB-231 cells assessed as reduction in methylation level at 1 uM by luminometric methylation assay; type: cell-based
[2] = biological target: Histone-lysine N-methyltransferase, H3 lysine-79 specific (Homo sapiens) (UniProt Q8TEK3); assay: Inhibition of DOT1L (unknown origin) using [methyl-3H]SAM and biotinylated nucleosome PRC2 and H3K27Me3 activator peptide up to 80 uM by [3H]methyl group incorporation assay
Sequence of Histone-lysine N-methyltransferase, H3 lysine-79 specific (Homo sapiens) (Q8TEK3 whole entry, looked up): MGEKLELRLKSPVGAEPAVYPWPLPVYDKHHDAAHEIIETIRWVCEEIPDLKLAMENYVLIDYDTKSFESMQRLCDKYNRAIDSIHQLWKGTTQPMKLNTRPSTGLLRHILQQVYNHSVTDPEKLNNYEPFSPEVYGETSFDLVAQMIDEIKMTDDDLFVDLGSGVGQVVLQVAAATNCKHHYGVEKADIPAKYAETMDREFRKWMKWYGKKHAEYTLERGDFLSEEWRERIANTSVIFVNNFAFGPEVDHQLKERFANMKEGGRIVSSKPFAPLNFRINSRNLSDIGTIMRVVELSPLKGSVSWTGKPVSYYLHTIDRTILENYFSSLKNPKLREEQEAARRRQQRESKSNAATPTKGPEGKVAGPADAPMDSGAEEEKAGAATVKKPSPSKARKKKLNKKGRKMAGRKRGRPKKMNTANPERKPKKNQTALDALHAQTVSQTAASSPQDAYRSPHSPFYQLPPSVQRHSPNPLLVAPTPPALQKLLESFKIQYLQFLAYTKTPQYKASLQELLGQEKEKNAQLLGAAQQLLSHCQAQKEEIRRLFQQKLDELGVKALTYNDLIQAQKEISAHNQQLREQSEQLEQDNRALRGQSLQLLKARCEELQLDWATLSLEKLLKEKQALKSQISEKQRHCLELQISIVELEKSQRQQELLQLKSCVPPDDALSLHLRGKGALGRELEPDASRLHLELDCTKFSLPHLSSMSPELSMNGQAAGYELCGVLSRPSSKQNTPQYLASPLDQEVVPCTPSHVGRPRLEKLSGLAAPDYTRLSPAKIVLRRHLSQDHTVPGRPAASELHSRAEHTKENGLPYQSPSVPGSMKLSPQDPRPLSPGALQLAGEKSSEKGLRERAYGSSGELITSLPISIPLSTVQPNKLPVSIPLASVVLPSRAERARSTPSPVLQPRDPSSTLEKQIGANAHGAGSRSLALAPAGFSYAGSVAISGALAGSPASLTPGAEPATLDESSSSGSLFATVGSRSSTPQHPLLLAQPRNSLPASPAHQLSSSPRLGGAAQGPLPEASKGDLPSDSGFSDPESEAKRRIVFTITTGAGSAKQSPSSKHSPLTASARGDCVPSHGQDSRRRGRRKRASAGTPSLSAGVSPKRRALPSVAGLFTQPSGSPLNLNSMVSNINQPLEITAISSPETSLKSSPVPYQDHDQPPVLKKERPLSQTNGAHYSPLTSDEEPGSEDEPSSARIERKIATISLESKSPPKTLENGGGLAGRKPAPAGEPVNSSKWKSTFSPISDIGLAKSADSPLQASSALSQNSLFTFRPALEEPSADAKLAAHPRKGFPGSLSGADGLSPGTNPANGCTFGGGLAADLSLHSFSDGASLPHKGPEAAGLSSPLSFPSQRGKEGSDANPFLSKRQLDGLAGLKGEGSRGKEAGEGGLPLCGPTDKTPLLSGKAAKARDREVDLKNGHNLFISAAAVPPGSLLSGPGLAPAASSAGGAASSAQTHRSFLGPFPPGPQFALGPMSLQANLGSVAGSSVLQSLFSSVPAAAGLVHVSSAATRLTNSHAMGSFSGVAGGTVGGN

[3] = biological target: Histone-lysine N-methyltransferase EZH2 (Homo sapiens) (UniProt Q15910); assay: Inhibition of EZH2 (unknown origin) using [methyl-3H]SAM and biotinylated nucleosome PRC2 and H3K27Me3 activator peptide up to 80 uM by [3H]methyl group incorporation assay
Sequence of Histone-lysine N-methyltransferase EZH2 (Homo sapiens) (Q15910 whole entry, looked up): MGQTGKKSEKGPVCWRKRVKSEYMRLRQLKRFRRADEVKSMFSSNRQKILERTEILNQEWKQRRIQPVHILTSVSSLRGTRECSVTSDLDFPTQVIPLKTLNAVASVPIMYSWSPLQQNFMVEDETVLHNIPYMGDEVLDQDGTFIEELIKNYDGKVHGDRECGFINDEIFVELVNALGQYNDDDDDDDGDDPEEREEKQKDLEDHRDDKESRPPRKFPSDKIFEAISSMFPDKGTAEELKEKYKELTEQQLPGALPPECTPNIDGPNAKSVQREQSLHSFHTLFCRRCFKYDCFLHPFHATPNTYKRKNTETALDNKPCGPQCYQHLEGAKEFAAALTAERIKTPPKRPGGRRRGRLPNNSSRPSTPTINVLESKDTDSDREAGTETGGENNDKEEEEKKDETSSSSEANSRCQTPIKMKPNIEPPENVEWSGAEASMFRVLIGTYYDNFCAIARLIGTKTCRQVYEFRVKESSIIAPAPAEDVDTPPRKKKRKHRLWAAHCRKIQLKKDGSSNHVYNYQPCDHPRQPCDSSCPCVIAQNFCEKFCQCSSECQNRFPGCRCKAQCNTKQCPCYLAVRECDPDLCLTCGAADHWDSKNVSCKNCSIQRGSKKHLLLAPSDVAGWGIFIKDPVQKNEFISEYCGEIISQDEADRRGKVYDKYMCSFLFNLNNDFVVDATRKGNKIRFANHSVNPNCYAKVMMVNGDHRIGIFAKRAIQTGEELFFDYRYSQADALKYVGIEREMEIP

[4] = biological target: DNA (cytosine-5)-methyltransferase 1 (Homo sapiens) (UniProt P26358); assay: Inhibition of human DNMT1 using [methyl-3H]SAM and biotinylated hemimethylated DNA duplex at 100 uM by [3H]methyl group incorporation assay
Sequence of DNA (cytosine-5)-methyltransferase 1 (Homo sapiens) (P26358 whole entry, the tested form may be a part): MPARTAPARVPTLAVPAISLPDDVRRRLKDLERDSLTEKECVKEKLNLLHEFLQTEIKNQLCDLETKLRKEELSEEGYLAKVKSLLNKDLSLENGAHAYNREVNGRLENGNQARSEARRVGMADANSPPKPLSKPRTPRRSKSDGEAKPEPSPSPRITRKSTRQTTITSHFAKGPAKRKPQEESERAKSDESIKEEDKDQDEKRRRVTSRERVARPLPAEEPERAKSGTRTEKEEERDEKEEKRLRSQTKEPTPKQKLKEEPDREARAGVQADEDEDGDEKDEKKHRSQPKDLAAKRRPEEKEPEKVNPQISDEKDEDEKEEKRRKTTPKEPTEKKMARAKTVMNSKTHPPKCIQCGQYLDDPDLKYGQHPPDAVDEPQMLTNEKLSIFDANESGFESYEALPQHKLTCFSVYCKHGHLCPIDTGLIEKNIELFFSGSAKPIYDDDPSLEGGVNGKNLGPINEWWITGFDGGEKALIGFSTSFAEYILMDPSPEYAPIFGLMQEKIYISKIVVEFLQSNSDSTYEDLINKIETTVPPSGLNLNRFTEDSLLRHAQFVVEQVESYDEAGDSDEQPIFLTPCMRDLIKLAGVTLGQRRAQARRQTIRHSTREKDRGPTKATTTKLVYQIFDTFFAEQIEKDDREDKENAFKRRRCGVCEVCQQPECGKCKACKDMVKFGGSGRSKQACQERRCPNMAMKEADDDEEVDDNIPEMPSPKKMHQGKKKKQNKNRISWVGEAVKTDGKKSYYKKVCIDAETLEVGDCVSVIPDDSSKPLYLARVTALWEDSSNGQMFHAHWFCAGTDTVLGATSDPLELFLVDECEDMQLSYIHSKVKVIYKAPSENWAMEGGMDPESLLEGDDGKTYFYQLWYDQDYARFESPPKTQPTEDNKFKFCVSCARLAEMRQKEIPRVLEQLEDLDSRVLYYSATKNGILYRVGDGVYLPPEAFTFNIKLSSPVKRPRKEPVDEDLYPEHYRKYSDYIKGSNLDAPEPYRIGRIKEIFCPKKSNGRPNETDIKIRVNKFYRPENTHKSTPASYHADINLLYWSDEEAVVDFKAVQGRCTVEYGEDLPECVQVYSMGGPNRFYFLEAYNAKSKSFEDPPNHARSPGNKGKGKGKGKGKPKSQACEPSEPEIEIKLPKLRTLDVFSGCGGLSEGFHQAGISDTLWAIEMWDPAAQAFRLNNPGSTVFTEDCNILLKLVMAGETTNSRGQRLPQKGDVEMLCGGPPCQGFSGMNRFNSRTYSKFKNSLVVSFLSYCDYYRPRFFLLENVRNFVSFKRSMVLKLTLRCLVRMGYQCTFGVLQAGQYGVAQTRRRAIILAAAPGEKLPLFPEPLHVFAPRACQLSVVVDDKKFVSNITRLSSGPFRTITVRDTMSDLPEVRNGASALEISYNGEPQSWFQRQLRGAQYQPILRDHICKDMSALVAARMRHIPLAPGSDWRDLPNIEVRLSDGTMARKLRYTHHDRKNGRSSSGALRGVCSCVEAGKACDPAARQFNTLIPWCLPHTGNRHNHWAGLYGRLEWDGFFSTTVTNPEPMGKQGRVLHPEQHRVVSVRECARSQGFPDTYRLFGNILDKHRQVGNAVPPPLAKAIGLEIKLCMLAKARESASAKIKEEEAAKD

MDA-MB-231 [5] = assay: Inhibition of DNMT in human MDA-MB-231 cells assessed as reduction in methylation level at 200 uM by luminometric methylation assay; type: cell-based
MDA-MB-231 [6] = assay: Inhibition of DNMT in human MDA-MB-231 cells assessed as reduction in methylation level at 100 uM by luminometric methylation assay; type: cell-based
MDA-MB-231 [7] = assay: Toxicity against human MDA-MB-231 cells; type: cell-based
[8] = biological target: T1, DNA (cytosine-5)-methyltransferase 3A (Homo sapiens, UniProt Q9Y6K1); assay: Inhibition of human DNMT3A catalytic domain (623 to 912 amino acids) at 10 uM after 1 hr by fluorescence assay
T1 sequence (Q9Y6K1 whole entry, looked up, the tested form may be a part): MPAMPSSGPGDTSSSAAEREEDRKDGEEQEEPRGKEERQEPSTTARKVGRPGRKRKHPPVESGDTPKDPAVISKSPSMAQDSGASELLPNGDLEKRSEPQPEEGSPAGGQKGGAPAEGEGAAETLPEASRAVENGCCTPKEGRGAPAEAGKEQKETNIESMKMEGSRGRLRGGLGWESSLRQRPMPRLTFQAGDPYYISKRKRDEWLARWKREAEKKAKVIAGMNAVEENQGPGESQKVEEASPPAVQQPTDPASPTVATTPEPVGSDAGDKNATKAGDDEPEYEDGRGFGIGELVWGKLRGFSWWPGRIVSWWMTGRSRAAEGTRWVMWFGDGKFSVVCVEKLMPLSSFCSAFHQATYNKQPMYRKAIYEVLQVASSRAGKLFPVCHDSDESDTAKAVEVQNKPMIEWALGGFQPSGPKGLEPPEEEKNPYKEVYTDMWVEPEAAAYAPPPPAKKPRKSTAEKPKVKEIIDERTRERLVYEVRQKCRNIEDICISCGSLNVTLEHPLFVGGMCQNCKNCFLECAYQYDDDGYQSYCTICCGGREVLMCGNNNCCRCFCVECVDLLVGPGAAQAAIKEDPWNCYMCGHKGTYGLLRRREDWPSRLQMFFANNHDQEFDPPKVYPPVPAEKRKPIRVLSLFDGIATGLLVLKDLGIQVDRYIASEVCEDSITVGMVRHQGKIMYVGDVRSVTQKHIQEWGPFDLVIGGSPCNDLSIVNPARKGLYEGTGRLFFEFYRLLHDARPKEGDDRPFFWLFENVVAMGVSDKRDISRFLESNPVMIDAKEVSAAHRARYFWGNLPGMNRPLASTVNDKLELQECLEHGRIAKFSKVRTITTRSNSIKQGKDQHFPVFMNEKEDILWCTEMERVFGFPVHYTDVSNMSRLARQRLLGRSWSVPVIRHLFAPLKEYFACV

[9] = biological target: T1, DNA (cytosine-5)-methyltransferase 3A; assay: Inhibition of human DNMT3A catalytic domain (623 to 912 amino acids) at 100 uM after 1 hr by fluorescence assay
[10] = biological target: DNA (cytosine-5)-methyltransferase 1 (Homo sapiens) (UniProt P26358); assay: Inhibition of human DNMT1 using [methyl-3H]SAM and biotinylated hemimethylated DNA duplex at 50 to 200 uM by [3H]methyl group incorporation assay
[11] = biological target: T1, DNA (cytosine-5)-methyltransferase 3A; assay: Inhibition of human DNMT3A catalytic domain (623 to 912 amino acids) after 1 hr by fluorescence assay

Row | Compound | inhibition [2] | inhibition [3] | inhibition [4] | further results
1 | Nc1ncn([C@@H]2O[C@H](CO)[C@@H](O)[C@H]2O)c(=O)n1 | – | – | – | inhibition (MDA-MB-231 [1]): Active
2 | COc1ccc(Cl)cc1C(=O)NCCc1ccc(CCC(N)=O)cc1 | inactive | inactive | < 20% | –
3 | COc1ccc(Cl)cc1C(=O)N(C)CCc1ccc(CCC(=O)O)cc1 | inactive | inactive | < 20% | –
4 | COc1cccc(C(=O)NCCc2ccc(CCC(=O)O)cc2)c1 | inactive | inactive | < 20% | –
5 | COc1ccc(Cl)cc1C(=O)NCCc1ccc(OCC(=O)O)cc1 | inactive | inactive | 15% | inhibition (MDA-MB-231 [5]): inactive; inhibition (MDA-MB-231 [6]): inactive; Activity (MDA-MB-231 [7]): Non-toxic; inhibition [8]: > 13%; inhibition [9]: > 60%
6 | COc1ccc(Cl)cc1C(=O)N[C@@H](Cc1ccc(OCC(=O)O)cc1)C(=O)O | inactive | inactive | < 20% | inhibition (MDA-MB-231 [5]): Active; inhibition (MDA-MB-231 [6]): inactive; Activity (MDA-MB-231 [7]): Non-toxic; inhibition [8]: > 13%; inhibition [9]: > 60%
7 | COc1ccc(Cl)cc1C(=O)NCCc1ccc(CCC(=O)O)cc1 | inactive | inactive | 2.9% | inhibition [8]: inactive; inhibition [9]: inactive; inhibition [10]: inactive
8 | O=C(O)CCc1ccc(CCNC(=O)c2ccccc2Br)cc1 | inactive | inactive | < 20% | –
9 | COc1ccc(Cl)cc1C(=O)NCCc1ccc(CC(C)C(=O)O)cc1 (stereo not drawn) | inactive | inactive | < 20% | –
10 | COc1ccc(Cl)cc1C(=O)NCCc1ccc(CCC(=O)N(C)C)cc1 | inactive | inactive | < 20% | –
11 | COc1ccc(Cl)cc1C(=O)Nc1ccc(CCC(=O)O)cc1 | inactive | inactive | < 20% | inhibition [8]: > 13%; inhibition [9]: > 60%
12 | COc1ccc(Cl)cc1CNCCc1ccc(CCC(=O)O)cc1 | inactive | inactive | < 20% | –
13 | COc1ccc(Cl)cc1C(=O)NCCc1ccccc1 | inactive | inactive | < 20% | –
14 | COc1ccc(Cl)cc1C(=O)NCCc1ccc(O)cc1 | inactive | inactive | 16% | Activity (MDA-MB-231 [7]): Toxic; EC50 [11]: 36 µM; inhibition [8]: > 13%; inhibition [9]: > 60%
15 | O=C(O)CCc1ccc(CCNC(=O)c2cc(Cl)ccc2F)cc1 | inactive | inactive | < 20% | –
16 | COc1ccc(Cl)cc1NC(=O)CCc1ccc(CCC(=O)O)cc1 | inactive | inactive | < 20% | –

Row | Compound | inhibition [2] | inhibition [3] | inhibition [4] | further results
17 | O=C(O)CCc1ccc(CCNC(=O)c2cc(C(F)(F)F)ccc2Cl)cc1 | inactive | inactive | < 20% | Activity (MDA-MB-231 [7]): Toxic; inhibition [8]: inactive; inhibition [9]: > 60%
18 | COc1ccc(Cl)cc1C(=O)NCCc1ccc(/C=C/C(=O)O)cc1 | inactive | inactive | < 20% | –
19 | CCc1ccc(CCNC(=O)c2cc(Cl)ccc2OC)cc1 | inactive | inactive | < 20% | –
20 | CNC(=O)CCc1ccc(CCNC(=O)c2cc(Cl)ccc2OC)cc1 | inactive | inactive | < 20% | –
21 | O=C(O)CCc1ccc(CCNC(=O)c2ccccc2F)cc1 | inactive | inactive | < 20% | –
22 | O=C(O)CCc1ccc(CCNC(=O)c2cccc(Cl)c2)cc1 | inactive | inactive | < 20% | –
23 | COc1ccc(Cl)cc1C(=O)NCCc1ccc(CC(=O)O)cc1 | inactive | inactive | < 20% | –
24 | O=C(O)CCc1ccc(CCNC(=O)c2cccnc2)cc1 | inactive | inactive | < 20% | –
25 | COc1ccc(Cl)cc1C(=O)NCCc1cccc(CCC(=O)O)c1 | inactive | inactive | < 20% | –
26 | COc1ccc(Cl)cc1C(=O)NCCc1ccc(CCCO)cc1 | inactive | inactive | < 20% | –
27 | COc1ccc(Cl)cc1C(=O)NCc1ccc(CCC(=O)O)cc1 | inactive | inactive | < 20% | inhibition [8]: > 13%; inhibition [9]: > 60%
28 | COc1ccc(Cl)cc1C(=O)NCCc1ccc(C(C)CC(=O)O)cc1 (stereo not drawn) | inactive | inactive | < 20% | –
29 | COc1ccc(Cl)cc1C(=O)NCCc1ccc(CCC(=O)N2CCOCC2)cc1 | inactive | inactive | < 20% | –
30 | O=C(O)CCc1ccc(CCNC(=O)c2ccc([N+](=O)[O-])cc2)cc1 | inactive | inactive | 14% | Activity (MDA-MB-231 [7]): Toxic; inhibition [8]: > 13%; inhibition [9]: > 60%
31 | COc1ccc(Cl)cc1C(=O)NCCc1ccc(C(=O)O)cc1 | inactive | inactive | < 20% | –
